Where two headings read alike, the source gives them in different places.

The test system of one series is ulcer. Briefly: Antiulcer action: inhibition of indomethacin-induced gastric ulcer (ulcer index) in rats. Conditions: Rattus norvegicus, 1 h before indomethacin (25 mg/kg orally), read-out: Inhibition ratio. It counts as in vivo, Wister male rats. The procedure: Wister male rats each weighing about 200 g were given, after fasting for 24 hours, orally 25 mg/kg of indomethacin suspended in 1% aq. solution of sodium carboxymethylcellulose. Five hours later, 1 ml of physiological saline containing 2% brilliant blue was injected intravenously on their tails, and 10 minutes later, they were slaughtered and their stomachs were removed. After fixation by injecting 12 ml of 1% formalin aq. solution, the stomachs were extended on a flat plate and the injured parts on the stomach was measured with slide calipers. The sum of the lengths in mm was regarded as the ulcer index.
The test compound was emulsified or suspended in physiological saline containing one drop of polysolvate 80, and this was given orally or subcutaneously on the back one hour before administration of indomethacin.
The ulcer inhibition ratio was obtained from the following formula.
Inhibition ratio (%)=A/B×100
A: (ulcer index of control group)--(ulcer index of test group given the test compound)
B: (ulcer index of control group)

The subject of another series is ddy male mice. Briefly: Acute toxicity, intraperitoneal, 7 days observation. The settings on record: 1000 mg/kg intraperitoneally, groups of five ddy male mice. It counts as in vivo. The procedure:
(§1) ddy male mice, arranged in groups each consisting of five mice, were given intraperitoneally 1000 mg/kg of the test compounds Nos. 1-4, 8-10, 14-18, 21, 22, 24, 25, 28, 31, 34, 35, 37, 45, 46, 48, 54, 57, 60, 62, 64, 68, 70, and 71 (as shown in Table 1) dissolved in cotton seed oil.

Test in series [1]: as above
In kind it is in vivo. Conditions: mouse, ip; ddy male mice, intraperitoneally, dissolved in cotton seed oil, observation for seven days. The protocol:
as §1

A further series relates to tumor. Conditions: Japanese Patent Publication No. 36-13349; cited from earlier work.

Turning to `CCCCCC(=O)OC(C)C(C)OC(=O)C=Cc1ccc(OC)cc1` (centres unmarked) [compound 34], the inhibition in vivo at 200 mg/kg in the series with ulcer (sc, subcutaneously, 5 rats) came to 75%. The “survival / anomaly after seven days” value in the series with ddy male mice is on record as “all the mice lived without any anomaly”. The molecule further returned an LD50 at 168 h in series [1] above 1000 mg/kg.
`C=CCCCCCCCCC(=O)OC(C)C(C)OC(=O)C=Cc1ccccc1` (centres unmarked) [compound 28]: the inhibition in vivo at 200 mg/kg in the series on ulcer (sc, subcutaneously, 5 rats) amounted to 62%. Moreover, the “survival / anomaly after seven days” value in the series on ddy male mice was “all the mice lived without any anomaly”. Also, the LD50 at 168 h in series [1] was above 1000 mg/kg.
Regarding `CCCCCCCCCCC(=O)OC(C)C(C)OC(=O)C=Cc1ccc(OC)cc1` (centres unmarked) [Compound No. 35], the inhibition in vivo at 200 mg/kg in the series on ulcer (sc, subcutaneously, 5 rats) came out at 77%. The “survival / anomaly after seven days” value with ddy male mice is on record as “all the mice lived without any anomaly”. Further, the LD50 at 168 h in series [1] is above 1000 mg/kg.
As for `CCCCCCCCCCC(=O)OC(C)C(C)OC(=O)CCCCC` (centres unmarked) [compound 17], the inhibition in vivo at 200 mg/kg in the series with ulcer (sc, subcutaneously, 5 rats) was 37%.
Consider `CCCCCC(=O)OC(C)C(C)OC(=O)C=Cc1ccc(C)cc1` (centres unmarked) [Compound No. 31], for which the inhibition in vivo at 200 mg/kg in the series with ulcer (sc, subcutaneously, 5 rats) was found to be 91%. Moreover, the “survival / anomaly after seven days” value in the series with ddy male mice was “all the mice lived without any anomaly”. The molecule also returned an LD50 at 168 h in series [1] above 1000 mg/kg.
Regarding `CCCCCCCCCCCCCCCC(=O)OC(C)C(C)OC(=O)CCCCCCCCCCCCCCC` (centres unmarked) [Compound No. 7], in the series on ulcer (sc, subcutaneously, 5 rats), the inhibition in vivo at 200 mg/kg came to 30%.
On to `CCCCCCCCCCC(=O)OC(C)C(C)OC(=O)C(C#N)=Cc1ccccc1` (centres unmarked) [compound 48], for which the inhibition in vivo at 200 mg/kg with ulcer (po, orally, 4 rats) came out at 84%. For the same molecule, the inhibition in vivo at 300 mg/kg in the series on ulcer (sc, 300 mg/kg, subcutaneously, 5 rats) was 96%. Also, in the series with ddy male mice, the “survival / anomaly after seven days” value is on record as “all the mice lived without any anomaly”. The same molecule gave an LD50 at 168 h in series [1] above 1000 mg/kg.
As for `CCCCCCCCCCC(=O)OC(C)C(C)OC(=O)CCc1ccccc1` (centres unmarked) [Compound No. 70], in the series on ulcer (sc, subcutaneously, 5 rats), the inhibition in vivo at 200 mg/kg was 45.9%. The “survival / anomaly after seven days” value in the series on ddy male mice was “all the mice lived without any anomaly”. This molecule had an LD50 at 168 h in series [1] above 1000 mg/kg.
The like results for `CCCCCCCCC(=O)OC(C)C(C)OC(=O)C(C#N)=Cc1ccccc1` (centres unmarked) [compound 46] were, in that order, 56%, “all the mice lived without any anomaly” and above 1000 mg/kg.
In the same order, the values of `CCCCCCCCC(=O)OC(C)C(C)OC(=O)C=Cc1ccccc1` (centres unmarked) [compound 24] are 90%, “all the mice lived without any anomaly” and above 1000 mg/kg.
Regarding `CCCCCCCCCCCCCC(=O)OC(C)C(C)OC(=O)CCCCCCCCCCCCC` (centres unmarked) [Compound No. 6], the inhibition in vivo at 200 mg/kg with ulcer (sc, subcutaneously, 5 rats) was determined as 57%.
Consider `CCCCCCCC(=O)OC(C)C(C)OC(=O)CCCCCCC` (centres unmarked) [Compound No. 1], for which the inhibition in vivo at 200 mg/kg in the series on ulcer (sc, subcutaneously, 5 rats) came to 92%.
Consider `CC(=Cc1ccccc1)C(=O)OC(C)C(C)OC(=O)C(C)=Cc1ccccc1` (centres unmarked) [compound 57], for which the inhibition in vivo at 200 mg/kg in the series with ulcer (sc, subcutaneously, 5 rats) was 80%. Besides, in the series on ddy male mice, the “survival / anomaly after seven days” value is given as “all the mice lived without any anomaly”. In addition, in series [1], the LD50 at 168 h is above 1000 mg/kg.
The like results for `CCCCCCCCCCC(=O)OC(C)C(C)OC(=O)COc1ccccc1` (centres unmarked) [Compound No. 71] were, in that order, 59.2%, “all the mice lived without any anomaly” and above 1000 mg/kg.
The like results for `CCCCCC(=O)OC(C)C(C)OC(=O)C(C)=Cc1ccccc1` (centres unmarked) [compound 54] were, in that order, 87%, “all the mice lived without any anomaly” and above 1000 mg/kg.
On to `CCCCCCCCCC(=O)OC(C)C(C)OC(=O)CCCCCCCCC` (centres unmarked) [Compound No. 3], for which the inhibition in vivo at 200 mg/kg with ulcer (sc, subcutaneously, 5 rats) was 50%.
Consider `CCCCCCCCCCC(=O)OC(C)C(C)OC(=O)c1ccccc1` (centres unmarked) [compound 64], for which the inhibition in vivo at 200 mg/kg in the series on ulcer (sc, subcutaneously, 5 rats) turned out to be 41.3%. The “survival / anomaly after seven days” value with ddy male mice is on record as “all the mice lived without any anomaly”. This molecule registered an LD50 at 168 h in series [1] above 1000 mg/kg.
For the molecule `CCCCCCCCCCC(=O)OC(C)C(C)OC(=O)C=Cc1cc(OC)c(OC)c(OC)c1` (centres unmarked) [Compound No. 40], the inhibition in vivo at 200 mg/kg with ulcer (sc, subcutaneously, 5 rats) came out at 99%.
Take `CCCCCC(=O)OC(C)C(C)OC(=O)c1cc(OC)c(OC)c(OC)c1` (centres unmarked) [Compound No. 62]: the inhibition in vivo at 200 mg/kg with ulcer (sc, subcutaneously, 5 rats) was 50%. For the same molecule, the “survival / anomaly after seven days” value in the series with ddy male mice was “all the mice lived without any anomaly”. Also, the LD50 at 168 h in series [1] is above 1000 mg/kg.
With `CCCCCCCCCC(=O)OC(C)C(C)OC(=O)C=Cc1ccccc1` (centres unmarked) [Compound No. 25], the inhibition in vivo at 200 mg/kg with ulcer (sc, subcutaneously, 5 rats) was 95%. Further, the “survival / anomaly after seven days” value in the series with ddy male mice was “all the mice lived without any anomaly”. Also, the LD50 at 168 h in series [1] is above 1000 mg/kg.
In the same order, the values of `CCCCCCCCCCC(=O)OC(C)C(C)OC(=O)c1cc(OC)c(OC)c(OC)c1` (centres unmarked) [Compound No. 68] are 89.3%, “all the mice lived without any anomaly” and above 1000 mg/kg.
As for `CCCCCCCCCCC(=O)OC(C)C(C)OC(=O)CCCCCCCCCC` (centres unmarked) [Compound No. 4], the inhibition in vivo at 200 mg/kg in the series with ulcer (sc, subcutaneously, 5 rats) was determined as 74%.
The same measure, in the same setting: the result for `CCCCCC=CCC=CCCCCCCCC(=O)OC(C)C(C)OC(=O)CCCCCCCC=CCC=CCCCCC` (centres unmarked) [compound 15] reads 47%.
As for `CCCCCC(=O)OC(C)C(C)OC(=O)C=Cc1ccccc1` (centres unmarked) [Compound No. 22], in the series on ulcer (sc, subcutaneously, 5 rats), the inhibition in vivo at 200 mg/kg worked out at 91%. The “survival / anomaly after seven days” value with ddy male mice was “all the mice lived without any anomaly”. In series [1], this molecule had an LD50 at 168 h above 1000 mg/kg.
In the same order, the values of `CCCCCCCC(=O)OC(C)C(C)OC(=O)C(C#N)=Cc1ccccc1` (centres unmarked) [compound 45] are 84%, “all the mice lived without any anomaly” and above 1000 mg/kg.
For the molecule `CCCCCCCC/C=C\CCCCCCCC(=O)OC(C)C(C)OC(=O)CCCCCCCCCC` (centres unmarked) [compound 21], the “survival / anomaly after seven days” value with ddy male mice was “all the mice lived without any anomaly”. In series [1], this molecule came in with an LD50 at 168 h above 1000 mg/kg.
For the molecule `CCCCCC(=O)OC(C)C(C)OC(=O)C=Cc1ccc(Cl)cc1` (centres unmarked) [compound 37], in the series on ulcer (sc, subcutaneously, 5 rats), the inhibition in vivo at 200 mg/kg was found to be 85%. Also, the “survival / anomaly after seven days” value in the series with ddy male mice is “all the mice lived without any anomaly”. In series [1], the LD50 at 168 h is above 1000 mg/kg.
The like results for `CCCCCC(=O)OC(C)C(C)OC(=O)c1ccc(OC)cc1` (centres unmarked) [compound 60] were, in that order, 41.4%, “all the mice lived without any anomaly” and above 1000 mg/kg.
Consider coixenolide, for which, in the series with tumor, the antitumor effect entry is listed as “has an antitumor effect”.
Take `CCCCCCCCC(=O)OC(C)C(C)OC(=O)CCCCCCCC` (centres unmarked) [Compound No. 2]: in the series on ulcer (sc, subcutaneously, 5 rats), the inhibition in vivo at 200 mg/kg came to 90%.
Same read-out and setting: the result for `CCC=CCC=CCC=CCCCCCCCC(=O)OC(C)C(C)OC(=O)CCCCCCCC=CCC=CCC=CCC` (centres unmarked) [compound 16] reads 86%.
